Reference: ChEMBL document CHEMBL1152560, “Substituted 2-arylbenzothiazoles as kinase inhibitors: hit-to-lead optimization” (Bioorg Med Chem, 2009)

Legend:
[1] = biological target: Vascular endothelial growth factor receptor 2 (Homo sapiens, UniProt P35968); experiment: Residual activity of VEGFR2 at 1 uM by microplate scintillation counting
[2] = biological target: Death-associated protein kinase 1 (Homo sapiens) (UniProt P53355); experiment: Residual activity of DAPK1 at 10 uM by microplate scintillation counting
[3] = biological target: Cyclin-dependent kinase 5/CDK5 activator 1 (Homo sapiens) (UniProt Q00535+Q15078); experiment: Residual activity of CDK5/p35NCK at 0.1 uM by microplate scintillation counting; assay type: protein-complex assay
[4] = biological target: Serine/threonine-protein kinase MARK1 (Homo sapiens) (UniProt Q9P0L2); experiment: Residual activity of MARK1 at 0.1 uM by microplate scintillation counting
[5] = biological target: Cyclin-dependent kinase 7/ cyclin H (Homo sapiens) (UniProt P51946+P50613); experiment: Residual activity of CDK7/CyclinH/MAT1 at 1 uM by microplate scintillation counting; assay type: protein-complex assay
[6] = biological target: T1, Serine/threonine-protein kinase VRK1 (Homo sapiens) (UniProt Q99986); experiment: Residual activity of VRK1 at 1 uM by microplate scintillation counting
T1 sequence (whole entry): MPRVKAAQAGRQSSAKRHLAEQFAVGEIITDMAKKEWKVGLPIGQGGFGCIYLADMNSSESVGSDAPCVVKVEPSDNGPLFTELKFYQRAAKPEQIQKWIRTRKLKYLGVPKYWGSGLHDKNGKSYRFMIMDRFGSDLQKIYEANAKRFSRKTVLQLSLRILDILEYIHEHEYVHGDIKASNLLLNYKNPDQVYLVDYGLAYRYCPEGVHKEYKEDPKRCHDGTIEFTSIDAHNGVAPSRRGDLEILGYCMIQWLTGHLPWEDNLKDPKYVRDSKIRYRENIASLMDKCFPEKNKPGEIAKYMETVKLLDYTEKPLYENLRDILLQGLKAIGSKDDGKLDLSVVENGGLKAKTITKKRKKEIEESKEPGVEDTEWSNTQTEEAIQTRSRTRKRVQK

[7] = biological target: RAC-alpha serine/threonine-protein kinase (Homo sapiens) (UniProt P31749); experiment: Residual activity of AKT1 at 0.1 uM by microplate scintillation counting
[8] = biological target: T2, Lymphokine-activated killer T-cell-originated protein kinase (Homo sapiens) (UniProt Q96KB5); experiment: Residual activity of PBK at 10 uM by microplate scintillation counting
T2 sequence (whole entry): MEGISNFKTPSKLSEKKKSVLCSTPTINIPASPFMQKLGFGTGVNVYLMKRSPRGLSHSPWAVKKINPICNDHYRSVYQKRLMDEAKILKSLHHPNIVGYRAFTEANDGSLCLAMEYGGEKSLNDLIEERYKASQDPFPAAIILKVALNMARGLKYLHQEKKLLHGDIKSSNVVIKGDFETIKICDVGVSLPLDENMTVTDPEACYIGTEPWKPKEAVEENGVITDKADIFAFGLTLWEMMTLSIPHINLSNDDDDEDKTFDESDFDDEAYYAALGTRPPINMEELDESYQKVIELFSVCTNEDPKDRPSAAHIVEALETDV

[9] = biological target: LIM domain kinase 1 (Homo sapiens) (UniProt P53667); experiment: Residual activity of LIMK1 at 1 uM by microplate scintillation counting
[10] = biological target: SRSF protein kinase 1 (Homo sapiens) (UniProt Q96SB4); experiment: Residual activity of SRPK1 at 10 uM by microplate scintillation counting
[11] = biological target: CDC42BPA protein (Homo sapiens) (UniProt B9EGA7); experiment: Residual activity of CDC42BPA at 0.1 uM by microplate scintillation counting
[12] = biological target: T3, MAP kinase-activated protein kinase 5 (Homo sapiens) (UniProt Q8IW41); experiment: Residual activity of MAPKAPK5 at 1 uM by microplate scintillation counting
T3 sequence (whole entry): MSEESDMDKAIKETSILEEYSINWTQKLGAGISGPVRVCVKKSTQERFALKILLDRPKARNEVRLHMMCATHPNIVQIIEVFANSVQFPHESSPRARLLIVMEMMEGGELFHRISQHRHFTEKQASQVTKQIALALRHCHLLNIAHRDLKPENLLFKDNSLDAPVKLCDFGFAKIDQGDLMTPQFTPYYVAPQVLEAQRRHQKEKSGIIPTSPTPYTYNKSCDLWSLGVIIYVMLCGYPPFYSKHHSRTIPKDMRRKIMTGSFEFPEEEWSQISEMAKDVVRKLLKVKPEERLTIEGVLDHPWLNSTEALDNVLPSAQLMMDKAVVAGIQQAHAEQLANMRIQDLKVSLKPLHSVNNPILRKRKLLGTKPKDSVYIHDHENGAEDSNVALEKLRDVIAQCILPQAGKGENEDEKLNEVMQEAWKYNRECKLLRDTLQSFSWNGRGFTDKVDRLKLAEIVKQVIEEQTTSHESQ

[13] = biological target: T4, Myotonin-protein kinase (Homo sapiens) (UniProt Q09013); experiment: Residual activity of DMPK at 1 uM by microplate scintillation counting
T4 sequence (whole entry): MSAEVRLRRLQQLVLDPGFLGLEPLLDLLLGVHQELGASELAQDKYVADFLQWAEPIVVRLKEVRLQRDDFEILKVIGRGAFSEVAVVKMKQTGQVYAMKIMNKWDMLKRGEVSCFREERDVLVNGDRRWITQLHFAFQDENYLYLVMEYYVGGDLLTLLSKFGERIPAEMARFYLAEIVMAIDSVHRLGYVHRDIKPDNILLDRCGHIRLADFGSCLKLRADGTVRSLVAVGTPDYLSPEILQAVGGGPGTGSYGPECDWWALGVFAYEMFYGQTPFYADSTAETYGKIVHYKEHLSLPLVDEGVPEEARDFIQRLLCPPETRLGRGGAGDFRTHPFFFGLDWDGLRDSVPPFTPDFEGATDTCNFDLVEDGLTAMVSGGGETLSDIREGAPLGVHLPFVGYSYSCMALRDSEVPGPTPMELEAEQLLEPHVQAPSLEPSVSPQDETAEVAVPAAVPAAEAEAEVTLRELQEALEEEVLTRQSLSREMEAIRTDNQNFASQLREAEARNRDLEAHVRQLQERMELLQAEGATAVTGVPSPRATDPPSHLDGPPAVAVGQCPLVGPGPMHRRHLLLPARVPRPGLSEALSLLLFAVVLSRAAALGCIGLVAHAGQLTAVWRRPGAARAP

Sequence of Vascular endothelial growth factor receptor 2 (P35968 whole entry): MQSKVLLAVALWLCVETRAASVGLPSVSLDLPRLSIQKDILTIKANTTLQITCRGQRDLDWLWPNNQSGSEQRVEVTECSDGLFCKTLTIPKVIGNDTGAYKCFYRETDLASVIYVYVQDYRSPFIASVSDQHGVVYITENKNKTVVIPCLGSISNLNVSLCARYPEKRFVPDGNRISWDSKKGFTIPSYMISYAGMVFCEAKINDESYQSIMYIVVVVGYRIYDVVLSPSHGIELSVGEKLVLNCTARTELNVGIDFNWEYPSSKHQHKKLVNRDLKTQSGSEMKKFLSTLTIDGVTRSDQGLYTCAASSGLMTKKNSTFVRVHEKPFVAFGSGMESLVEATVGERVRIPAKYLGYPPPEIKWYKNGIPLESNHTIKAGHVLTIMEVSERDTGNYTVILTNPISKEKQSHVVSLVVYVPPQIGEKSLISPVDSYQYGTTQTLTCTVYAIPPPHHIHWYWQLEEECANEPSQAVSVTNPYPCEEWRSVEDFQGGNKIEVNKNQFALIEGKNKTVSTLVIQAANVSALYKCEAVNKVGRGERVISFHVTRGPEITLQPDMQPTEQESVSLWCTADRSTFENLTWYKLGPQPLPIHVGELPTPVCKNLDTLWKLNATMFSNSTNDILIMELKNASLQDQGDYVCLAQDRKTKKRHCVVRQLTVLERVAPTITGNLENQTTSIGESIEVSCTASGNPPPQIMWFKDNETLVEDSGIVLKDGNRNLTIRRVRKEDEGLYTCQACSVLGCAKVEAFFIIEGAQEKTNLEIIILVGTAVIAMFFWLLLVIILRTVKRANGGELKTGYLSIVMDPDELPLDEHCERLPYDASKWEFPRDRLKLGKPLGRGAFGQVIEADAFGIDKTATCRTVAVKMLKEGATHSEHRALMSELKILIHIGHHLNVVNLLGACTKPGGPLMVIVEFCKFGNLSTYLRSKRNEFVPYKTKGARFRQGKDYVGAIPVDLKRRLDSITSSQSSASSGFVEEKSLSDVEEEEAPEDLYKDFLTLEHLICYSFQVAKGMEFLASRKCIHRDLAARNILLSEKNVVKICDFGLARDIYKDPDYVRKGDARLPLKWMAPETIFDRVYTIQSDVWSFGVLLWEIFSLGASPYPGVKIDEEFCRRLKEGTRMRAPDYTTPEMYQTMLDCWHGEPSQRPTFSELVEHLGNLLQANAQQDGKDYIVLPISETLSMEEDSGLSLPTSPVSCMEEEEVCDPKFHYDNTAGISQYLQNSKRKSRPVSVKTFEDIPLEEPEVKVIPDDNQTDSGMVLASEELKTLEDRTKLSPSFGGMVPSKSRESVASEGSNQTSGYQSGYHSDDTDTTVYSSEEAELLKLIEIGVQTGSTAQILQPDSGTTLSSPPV
Sequence of Serine/threonine-protein kinase MARK1 (Homo sapiens) (Q9P0L2 whole entry, looked up): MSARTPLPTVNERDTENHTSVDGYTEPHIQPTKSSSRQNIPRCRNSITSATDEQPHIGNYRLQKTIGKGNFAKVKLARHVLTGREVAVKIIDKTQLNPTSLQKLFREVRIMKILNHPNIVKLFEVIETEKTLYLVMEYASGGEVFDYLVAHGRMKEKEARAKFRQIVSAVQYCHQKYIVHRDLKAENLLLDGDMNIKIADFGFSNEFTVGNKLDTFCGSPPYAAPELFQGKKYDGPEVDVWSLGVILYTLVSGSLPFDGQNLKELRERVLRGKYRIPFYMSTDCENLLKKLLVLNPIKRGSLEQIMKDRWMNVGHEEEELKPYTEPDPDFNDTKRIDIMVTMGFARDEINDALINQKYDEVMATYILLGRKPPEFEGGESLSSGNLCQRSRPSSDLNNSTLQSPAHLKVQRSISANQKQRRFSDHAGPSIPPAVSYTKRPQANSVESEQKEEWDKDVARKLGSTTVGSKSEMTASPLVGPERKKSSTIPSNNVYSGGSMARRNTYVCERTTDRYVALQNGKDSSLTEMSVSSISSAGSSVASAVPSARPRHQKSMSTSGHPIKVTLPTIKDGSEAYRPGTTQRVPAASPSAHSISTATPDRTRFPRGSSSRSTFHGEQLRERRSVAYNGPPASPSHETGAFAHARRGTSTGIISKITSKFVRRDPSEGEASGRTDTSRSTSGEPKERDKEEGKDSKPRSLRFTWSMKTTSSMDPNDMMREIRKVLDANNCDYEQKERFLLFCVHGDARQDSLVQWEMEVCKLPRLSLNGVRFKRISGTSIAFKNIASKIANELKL
Sequence of CDC42BPA protein (Homo sapiens) (B9EGA7 as listed by the source): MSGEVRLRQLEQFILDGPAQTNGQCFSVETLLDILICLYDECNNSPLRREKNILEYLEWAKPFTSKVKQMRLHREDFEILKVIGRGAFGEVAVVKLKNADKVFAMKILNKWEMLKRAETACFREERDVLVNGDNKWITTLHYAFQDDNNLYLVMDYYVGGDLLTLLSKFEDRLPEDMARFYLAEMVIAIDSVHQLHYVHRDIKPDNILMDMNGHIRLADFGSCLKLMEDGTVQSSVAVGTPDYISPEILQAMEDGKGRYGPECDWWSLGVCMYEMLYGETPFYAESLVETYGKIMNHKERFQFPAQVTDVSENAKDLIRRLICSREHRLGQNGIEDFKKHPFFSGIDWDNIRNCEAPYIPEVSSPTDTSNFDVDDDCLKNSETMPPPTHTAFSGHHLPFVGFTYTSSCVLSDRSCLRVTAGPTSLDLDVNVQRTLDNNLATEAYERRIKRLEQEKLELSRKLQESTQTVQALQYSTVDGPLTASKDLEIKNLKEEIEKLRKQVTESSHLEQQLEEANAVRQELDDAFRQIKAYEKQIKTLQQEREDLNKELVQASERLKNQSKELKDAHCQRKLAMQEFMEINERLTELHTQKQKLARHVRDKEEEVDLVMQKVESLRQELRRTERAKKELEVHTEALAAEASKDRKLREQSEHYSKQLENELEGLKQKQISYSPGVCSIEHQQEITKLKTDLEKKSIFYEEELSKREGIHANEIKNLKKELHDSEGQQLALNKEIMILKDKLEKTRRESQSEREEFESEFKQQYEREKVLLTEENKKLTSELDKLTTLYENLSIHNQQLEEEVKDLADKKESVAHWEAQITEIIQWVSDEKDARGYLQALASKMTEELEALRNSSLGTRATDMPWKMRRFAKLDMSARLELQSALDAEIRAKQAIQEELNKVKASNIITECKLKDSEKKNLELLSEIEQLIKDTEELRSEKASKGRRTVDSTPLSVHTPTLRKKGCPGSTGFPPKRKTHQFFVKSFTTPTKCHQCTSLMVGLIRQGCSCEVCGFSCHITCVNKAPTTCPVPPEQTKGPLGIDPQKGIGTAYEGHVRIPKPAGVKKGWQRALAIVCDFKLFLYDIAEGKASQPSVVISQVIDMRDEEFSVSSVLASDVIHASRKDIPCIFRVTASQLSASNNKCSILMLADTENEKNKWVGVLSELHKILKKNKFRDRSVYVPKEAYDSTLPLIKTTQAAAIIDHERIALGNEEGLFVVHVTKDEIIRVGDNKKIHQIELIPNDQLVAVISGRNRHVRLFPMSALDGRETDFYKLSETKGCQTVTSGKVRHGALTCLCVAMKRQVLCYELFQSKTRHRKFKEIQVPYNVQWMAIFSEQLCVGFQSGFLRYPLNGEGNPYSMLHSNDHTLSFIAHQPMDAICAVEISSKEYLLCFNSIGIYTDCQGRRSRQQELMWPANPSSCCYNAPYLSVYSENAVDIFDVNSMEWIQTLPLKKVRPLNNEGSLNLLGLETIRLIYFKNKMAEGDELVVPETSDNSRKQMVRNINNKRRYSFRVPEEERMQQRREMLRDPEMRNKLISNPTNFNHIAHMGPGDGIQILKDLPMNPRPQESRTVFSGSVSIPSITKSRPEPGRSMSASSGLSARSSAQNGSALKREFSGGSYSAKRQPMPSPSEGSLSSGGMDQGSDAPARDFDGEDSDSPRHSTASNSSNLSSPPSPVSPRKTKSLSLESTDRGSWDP
Sequence of Cyclin-dependent kinase 5/CDK5 activator 1 (Homo sapiens) (Q00535 whole entry): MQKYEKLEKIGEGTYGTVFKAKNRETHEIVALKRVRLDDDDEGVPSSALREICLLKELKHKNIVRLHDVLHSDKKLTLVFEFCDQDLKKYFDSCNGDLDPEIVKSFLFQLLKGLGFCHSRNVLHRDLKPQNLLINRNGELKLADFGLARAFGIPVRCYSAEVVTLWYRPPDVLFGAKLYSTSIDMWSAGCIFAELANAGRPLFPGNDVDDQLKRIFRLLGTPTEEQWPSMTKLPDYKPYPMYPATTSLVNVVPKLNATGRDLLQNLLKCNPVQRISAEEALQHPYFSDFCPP
Sequence of Cyclin-dependent kinase 5/CDK5 activator 1 (Homo sapiens) (Q15078 99-307 partner limits assumed): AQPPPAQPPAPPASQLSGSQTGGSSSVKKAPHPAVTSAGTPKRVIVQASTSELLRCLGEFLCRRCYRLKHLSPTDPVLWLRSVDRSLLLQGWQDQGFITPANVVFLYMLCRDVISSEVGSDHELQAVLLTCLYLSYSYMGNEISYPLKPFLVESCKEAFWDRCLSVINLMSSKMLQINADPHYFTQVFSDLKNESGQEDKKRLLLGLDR
Sequence of SRSF protein kinase 1 (Homo sapiens) (Q96SB4 whole entry): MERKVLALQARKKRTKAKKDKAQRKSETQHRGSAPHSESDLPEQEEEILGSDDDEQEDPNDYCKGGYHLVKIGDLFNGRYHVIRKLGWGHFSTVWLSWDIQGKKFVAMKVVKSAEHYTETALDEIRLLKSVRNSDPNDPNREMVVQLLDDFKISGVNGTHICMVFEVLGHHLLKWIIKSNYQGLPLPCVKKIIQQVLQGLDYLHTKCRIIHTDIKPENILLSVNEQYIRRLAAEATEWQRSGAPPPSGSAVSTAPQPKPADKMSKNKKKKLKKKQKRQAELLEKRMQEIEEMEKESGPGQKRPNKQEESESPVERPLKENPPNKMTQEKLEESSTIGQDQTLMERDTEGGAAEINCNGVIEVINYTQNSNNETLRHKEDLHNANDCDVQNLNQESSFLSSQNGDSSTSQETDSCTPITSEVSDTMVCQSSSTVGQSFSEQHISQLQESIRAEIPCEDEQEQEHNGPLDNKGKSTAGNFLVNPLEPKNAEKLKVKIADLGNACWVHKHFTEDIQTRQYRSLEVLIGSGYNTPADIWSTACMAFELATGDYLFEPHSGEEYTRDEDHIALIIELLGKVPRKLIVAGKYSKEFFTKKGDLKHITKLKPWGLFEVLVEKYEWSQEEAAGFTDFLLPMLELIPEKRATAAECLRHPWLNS

In the case of `COc1cc2c(Oc3ccc(-c4nc5ccccc5s4)cc3F)ncnc2cc1OCCCN1CCN(C)CC1`, the residual activity [1] is reported as 53%, the residual activity [2] is reported as 15% and the residual activity [3] is reported as 83%. For the same compound, the residual activity [4] was 91%, the residual activity [5] was 87% and the residual activity [6] was 98%. It also gave a residual activity [7] of 100%, a residual activity [8] of 65% and a residual activity [9] of 81%. For the same compound, the residual activity [10] was 64%, the residual activity [11] was 86% and the residual activity [12] was 90%. For the same compound, the residual activity [13] was 121%.

For `COc1cc2c(Oc3ccc(-c4nc5ccccc5s4)cc3)ncnc2cc1OCCCN1CCCC1`, the residual activity [1] was 49%, the residual activity [2] was 25% and the residual activity [3] was 94%. The residual activity [4] was 90%, the residual activity [5] was 77% and the residual activity [6] was 95%. For the same compound, the residual activity [7] was 91%, the residual activity [8] was 85% and the residual activity [9] was 82%. For the same compound, the residual activity [10] was 107%, the residual activity [11] was 104% and the residual activity [12] was 90%. The residual activity [13] was 104%.

`COc1cc2c(Oc3ccc(-c4nc5ccccc5s4)cc3)ncnc2cc1OCCCN1CCN(C)CC1` showed a residual activity [1] of 40%, a residual activity [2] of 24% and a residual activity [3] of 93%. It also gave a residual activity [4] of 98%, a residual activity [5] of 94% and a residual activity [6] of 103%. The residual activity [7] was 102%, the residual activity [8] was 102% and the residual activity [9] was 83%. The residual activity [10] was 98%, the residual activity [11] was 112% and the residual activity [12] was 107%. The residual activity [13] was 106%.
